Read-outs that look alike come from different tables or passages of the source.
Tests used:
[1] = biological target: full length, heterotrimeric human RPA (fl-RPA) (Homo sapiens (Human), UniProt P27694); assay: EMSA for inhibition of RPA-DNA binding activity (full length RPA)
Description: Referring to protein purification, full length, heterotrimeric human RPA (fl-RPA) was expressed in E. coli and purified by a three column procedure as previously described (See Patrick S M and Turchi J, Replication Protein A (RPA) Binding to Duplex Cisplatin-damaged DNA Is Mediated through the Generation of Single-stranded DNA. J Biol Chem 1999; 274:14972-8). The DBD-A/B construct was expressed as a SUMO-His6-RPA^181-432 fusion protein. E. coli BL21 (DE3) cells in log growth were induced for 3 hours with 0.5 mM IPTG at 37° C. The cells were lysed in buffer containing 50 mM Tris pH 7.5, 300 mM NaCl, 10% sucrose, 10 mM imidazole, 25 μg/ml lysozyme, 1 μg/ml leupeptin, 1 μg/ml pepstatin and 0.5 mM PMSF. The lysate was loaded onto a Ni-NTA column washed and then incubated overnight with wash buffer containing 3 μg/ml ULP1 protease to cleave the SUMO tag. The cleaved His6-RPA^181-432 was eluted from the Ni-NTA column with elution buffer containing 350 mM imidazole. The His6-RPA was then further purified on a size exclusion column (SEC) to remove the cleaved SUMO tag fragment. The SEC pool was then concentrated and stored at −80° C.
Referring now to Electrophoretic Mobility Shift Assays (“EMSA”), EMSA reactions (20 μL) were performed with 50 nM fl-RPA and 2.5 nM 5′[^32P]-labeled 34-base DNA in buffer containing 20 mM HEPES (pH 7.0), 1 mM DTT, 0.001% NP-40, 100 mM NaCl, 5 mM MgCl2 and 50 μg/ml bovine serum albumin (BSA). Chemical compounds, either purchased from ChemDiv or synthesized in the laboratory, were suspended in DMSO and titrated as detailed in each figure. The DMSO concentration in the reaction mixture was kept constant at or below 5%. RPA was incubated with inhibitor or DMSO control in reaction buffer for 30 minutes before the addition of DNA. Reactions were incubated for 5 minutes at room temperature and products separated via 6% native polyacrylamide gel electrophoresis. The bound and unbound fractions were then quantified by phosphor-imager analysis using ImageQuant software (Molecular Dynamics, CA) and IC50 values calculated by non-linear regression using SigmPlot (Sysat). For EMSA reactions with RPA DBD-A/B, 150 nM DBD-A/B was used and electrophoresis was performed at 4° C. All other conditions were identical to those described for the full length RPA.

A2780 EOC cell line = assay: Clonogenic survival assay in A2780 cells; assay type: cell-based; details: 48 hours treatment, 1-200 μM, read-out: Cellular IC50
Description: Referring now to cell culture, A2780 cells and A2780/R cells were purchased from Sigma. All other cell lines were from ATCC and routinely tested for mycoplasma contamination. Cells were maintained in RPMI media supplemented with 10% FBS (Atlanta Biological), penicillin and streptomycin. Cultures were incubated at 37° C. in 5% CO2 and sub-cultured 2-3 times per week.
(§1) Referring now to clonogenic survival assays, cells were plated in a 6 well (100,000 cells/well) or 24 well (25,000 cells/well) plate, incubated for at least 18 hours and then treated with Pt/etoposide and/or RPA inhibitors. After 48 hours of treatment, the cells were re-plated in 10 cm dishes (500-1000 cells/dish) and incubated for 8-10 days to allow colony formation. Plates were then washed with PBS, fixed with glutaraldehyde (Fisher Scientific) and stained with crystal violet (Acros Organics). The colonies were then counted using an Acolyte Synbiosis colony counter, viability determined versus vehicle controls which were plotted versus drug concentration.

[2] = Preliminary pharmacokinetic analysis; assay type: in vivo, mice
[3] = Safety and tolerability (body weight) in naive NOD/SCID mice; assay type: in vivo
Description: Referring now to in vivo analysis of TDRL-551, non-obese diabetic/severe combined immunodeficient mice (NOD/SCID) were obtained from The Jackson Laboratory. All animal studies were conducted under the guidelines of the NIH and were approved by the Institutional Animal Care and Use Committee of Indiana University School of Medicine. Animals were maintained under pathogen-free conditions and a 12-hour light-dark cycle. The safety and tolerability of TDRL-551 was assessed in naïve NOD/SCID mice. Mice were treated IP with increasing concentrations of TDRL-551 in a formulation consisting of 20% DMSO, 10% Tween 80, 70% PBS. Based on preliminary PK analysis and a half-life of ˜7 hours (data not shown) we administered 3 doses per week for two weeks and measured body weight every other day.

A2780 cells = assay: Assessment of synergy via combination index (Chou-Talalay), colony formation; assay type: cell-based; details: A2780, at 0.5 or higher fraction of cells affected
Description: as §1
Referring now to Assessment of Synergy via Combination Index, in the combination index studies, the A2780 cells were treated with RPA inhibitor and Pt/etoposide alone as well as the combination of both—the inhibitor and the DNA damaging chemotherapeutic agent. The range of treatment was dependent on the IC50 of each inhibitor/drug. If the IC50 was X, then the cells were treated at a range of X/4 to 3X concentration in a colony formation assay. […]

[4] = EMSA, RPA incubated with compounds at 1-125 μM, read-out: In vitro IC50
[5] = compounds titrated at 1-125 μM, read-out: IC50 calculated from EMSA reactions

Sequence of full length, heterotrimeric human RPA (fl-RPA) (P27694 whole entry, the tested form may be a part): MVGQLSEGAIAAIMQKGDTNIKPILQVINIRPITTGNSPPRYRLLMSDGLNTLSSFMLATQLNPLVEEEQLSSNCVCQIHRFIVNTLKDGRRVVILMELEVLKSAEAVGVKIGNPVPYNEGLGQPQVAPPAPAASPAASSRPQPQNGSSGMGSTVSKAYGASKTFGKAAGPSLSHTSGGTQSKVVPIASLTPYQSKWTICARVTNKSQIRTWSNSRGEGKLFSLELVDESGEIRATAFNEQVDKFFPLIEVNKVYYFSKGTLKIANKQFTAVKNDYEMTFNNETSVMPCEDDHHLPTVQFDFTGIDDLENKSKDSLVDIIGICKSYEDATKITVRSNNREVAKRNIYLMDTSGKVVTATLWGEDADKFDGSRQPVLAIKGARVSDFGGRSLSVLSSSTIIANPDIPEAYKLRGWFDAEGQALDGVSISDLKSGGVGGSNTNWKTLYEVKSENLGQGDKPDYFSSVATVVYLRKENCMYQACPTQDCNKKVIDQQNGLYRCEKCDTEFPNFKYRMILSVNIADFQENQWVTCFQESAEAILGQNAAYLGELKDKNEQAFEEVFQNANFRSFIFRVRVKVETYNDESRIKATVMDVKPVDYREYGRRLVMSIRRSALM
Sequence of full length, heterotrimeric human RPA (fl-RPA) (P15927 whole entry partner, the tested form may be a part): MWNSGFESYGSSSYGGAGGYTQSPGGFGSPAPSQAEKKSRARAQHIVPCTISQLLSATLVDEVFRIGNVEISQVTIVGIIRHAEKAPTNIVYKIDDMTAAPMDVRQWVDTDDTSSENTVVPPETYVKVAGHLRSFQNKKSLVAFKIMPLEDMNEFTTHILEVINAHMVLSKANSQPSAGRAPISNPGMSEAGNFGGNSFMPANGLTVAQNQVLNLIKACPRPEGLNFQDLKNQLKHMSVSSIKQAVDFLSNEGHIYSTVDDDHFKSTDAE
Sequence of full length, heterotrimeric human RPA (fl-RPA) (P35244 whole entry partner, the tested form may be a part): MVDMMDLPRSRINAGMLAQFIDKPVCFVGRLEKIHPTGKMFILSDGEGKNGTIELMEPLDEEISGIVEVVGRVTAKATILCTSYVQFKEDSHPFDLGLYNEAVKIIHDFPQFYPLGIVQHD

Row | SMILES | IC50 [1, 4] [µM] | IC50 [1, 5] [µM] | also measured
1 | CCOc1ccc2cc(C3CC(c4ccc(Br)cc4)=NN3C(=O)CCCCC(=O)O)c(Cl)nc2c1 (centres unmarked) [TDRL-543] | 25 | – | IC50 (A2780 EOC cell line): 50 µM
2 | COc1ccc(C2CC(c3ccc(C)cc3)=NN2C(=O)CCCC(=O)O)cc1OC (centres unmarked) [b] | – | > 100 | –
3 | COc1ccc2cc(C3CC(c4ccc(Cl)cc4)=NN3C(=O)CCC(=O)O)c(Cl)nc2c1 (centres unmarked) [f] | – | 75 | –
4 | CCOc1ccc2cc(C3CC(c4ccc(OC(F)(F)F)cc4)=NN3C(=O)CCCCC(=O)O)c(Cl)nc2c1 (centres unmarked) [TDRL-557] | 30 | – | –
5 | COc1ccc(C2=NN(C(=O)CCC(=O)O)C(c3cc4ccc(OC)cc4nc3Cl)C2)cc1 (centres unmarked) [g] | – | > 100 | –
6 | COc1ccc2cc(C3CC(c4ccc(F)cc4)=NN3C(=O)CCCC(=O)O)c(Cl)nc2c1 (centres unmarked) [TDRL-540] | > 100 | – | –
7 | CC(C)Oc1ccc2cc(C3CC(c4ccc(Br)cc4)=NN3C(=O)CCCCC(=O)O)c(Cl)nc2c1 (centres unmarked) [TDRL-556] | 43 | – | –
8 | COc1ccc2cc(C3CC(c4ccc(OC)c(OC)c4)=NN3C(=O)CCCC(=O)O)c(Cl)nc2c1 (centres unmarked) [k] | – | > 100 | –
9 | CCOc1ccc2cc(C3CC(c4ccc(I)cc4)=NN3C(=O)CCCCCC(=O)O)c(Cl)nc2c1 (centres unmarked) [NG-01-25] | 10 | – | –
10 | COc1ccc2cc(C3CC(c4ccc(Cl)cc4)=NN3C(=O)CCCC(=O)O)c(Cl)nc2c1 (centres unmarked) [j] | – | 60 | –
11 | CCOc1ccc2cc(C3CC(c4ccc(C)cc4)=NN3C(=O)CCC(=O)O)c(Cl)nc2c1 (centres unmarked) [e] | – | 80 | –
12 | CCOc1ccc2cc(C3CC(c4cccc(I)c4)=NN3C(=O)CCCCC(=O)O)c(Cl)nc2c1 (centres unmarked) [TDRL-652] | 15 | – | –
13 | COc1ccc2cc(C3CC(c4ccc(Br)cc4)=NN3C(=O)CCCC(=O)O)c(Cl)nc2c1 (centres unmarked) [TDRL-533] | > 50 | – | IC50 (A2780 EOC cell line): > 50 µM
14 | COc1ccc2cc(C3CC(c4ccc(OC)c(OC)c4)=NN3C(=O)CCC(=O)O)c(Cl)nc2c1 (centres unmarked) [h] | – | > 100 | –
15 | CCOc1ccc2cc(C3CC(c4ccc(I)cc4)=NN3C(=O)CCCC(=O)O)c(Cl)nc2c1 (centres unmarked) | – | – | half-life ([2]; NOD/SCID, mouse, plasma, preliminary PK analysis): ~7 h; plasma concentration achieved ([2]; initial pharmacokinetic analysis): > 20 µM; IC50 (A2780 EOC cell line; Homo sapiens): 25 µM; adverse effects / loss of weight ([3]; co-treatment with carboplatin, up to 200 mg/kg): no adverse effects or loss of weight; body weight change ([3]; intraperitoneal administration up to 200 mg/kg, 3 doses per week for two weeks): no weight loss observed; body weight change ([3]; intraperitoneal, 300 mg/kg): slight decrease in body weight; loss of weight ([3]; intraperitoneal, 300 mg/kg): ≤ 10%; combination index (CI) with cisplatin (A2780 cells): < 1
16 | COc1ccc2cc(C3CC(c4ccc(Br)cc4)=NN3C(=O)CCCCC(=O)O)c(Cl)nc2c1 (centres unmarked) [TDRL-534] | 35 | – | –
17 | COc1ccc(C2=NN(C(=O)CCCC(=O)O)C(c3ccccc3OC)C2)cc1 (centres unmarked) [c] | – | > 100 | –
18 | CCOc1ccc2cc(C3CC(c4ccc(I)cc4)=NN3c3cccc(C(=O)O)c3)c(Cl)nc2c1 (centres unmarked) [NG-01-02] | 75.5 | – | –
19 | COc1ccc2cc(C3CC(c4ccc(F)cc4)=NN3C(=O)CCCCC(=O)O)c(Cl)nc2c1 (centres unmarked) [TDRL-539] | > 100 | – | –
20 | CCOc1ccc2cc(C3CC(c4ccc(Br)nc4)=NN3C(=O)CCC(=O)O)c(Cl)nc2c1 (centres unmarked) [TDRL-617] | > 100 | – | –
21 | CCOc1ccc2cc(C3CC(c4ccc(I)cc4)=NN3c3ccc(C(=O)O)cc3)c(Cl)nc2c1 (centres unmarked) [NG-01-04] | > 100 | – | –
22 | COc1ccc2cc(C3CC(c4ccc(C)cc4)=NN3C(=O)CCCC(=O)O)c(Cl)nc2c1 (centres unmarked) [i] | – | > 100 | –
23 | CCOc1ccc2cc(C3CC(c4ccc(I)cc4)=NN3C(=O)CCCCC(=O)O)c(Cl)nc2c1 (centres unmarked) [NG-01-24] | 7 | – | –
24 | CCOc1ccc2cc(C3CC(c4ccc(Br)cc4)=NN3C(=O)CCCC(=O)O)c(Cl)nc2c1 (centres unmarked) [d] | – | 25 | –
25 | COc1ccc(C2CC(c3ccccc3)=NN2C(=O)CCCC(=O)O)cc1OC (centres unmarked) [a] | – | > 100 | –
26 | O=C(O)CCCC(=O)N1N=C(c2ccccc2)CC1c1cc2cc3c(cc2nc1Cl)OCCO3 (centres unmarked) [l] | – | > 100 | –

— patent US10774063B2, “Materials and method for inhibiting replication protein A and uses thereof” (INDIANA UNIVERSITY RESEARCH AND TECHNOLOGY CORPORATION, priority 2014, dated 2020)
